The text below walks through data of ChEMBL document CHEMBL1201862, “PubChem BioAssay data set” (2004).

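Interpolation was linear, between the two tested concentrations surrounding the appropriate level; five concentrations were tested over 48 hours in 96-well plates. GI50 = concentration required for 50% inhibition of growth.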 The source made the active and inactive calls. Rule as the data show it: active = GI50 up to about 1.1 µM and inactive = higher. Bounds are passed on as bounds.

Usually GI50 stands for the concentration that inhibits growth by half.

Some test systems named below: MOLT-4; HT-29; HCT-15; UO-31; Malme-3M; ACHN; KM-20L2; HOP-62; HOP-92; LXFL 529; 786-0; LOX IMVI; M14; SK-MEL-28; SF-268; K562; MDA-MB-435; PC-3; MDA-MB-231; T47D.
What all share (test): DTP human tumour cell line panel, 48 h

As to `O=C1C(N2C(=O)c3ccccc3C2=O)CN1C(COCc1ccccc1)c1ccc(OCc2ccccc2)cc1` (centres undefined), the GI50 was > 100 µM (inactive) in the experiment on MOLT-4; > 100 µM (inactive) in the experiment on HT-29; greater than 100 µM with HCT-15; > 100 µM (inactive) with UO-31; > 100 µM (inactive) with Malme-3M; > 100 µM (inactive) with ACHN. For the same compound, the GI50 in the experiment on KM-20L2, with HOP-62, in the experiment with HOP-92, with LXFL 529, in the experiment on 786-0 and in the experiment on LOX IMVI was > 100 µM (inactive) in each case. The GI50 in the experiment on M14, in the experiment on SK-MEL-28, in the experiment with SF-268 and in the experiment on K562 was > 100 µM (inactive) in each case.

Take `CCOc1ccc(NC(=O)CC2C(=O)Nc3ccccc3[S+]2[O-])cc1` (centres undefined): the GI50 is > 100 µM (inactive) in the experiment with MOLT-4; > 100 µM (inactive) in the experiment with HT-29; greater than 100 µM with HCT-15; > 52 µM (inactive) in the experiment with UO-31; 98.2 µM (inactive) in the experiment on Malme-3M; > 52.7 µM (inactive) in the experiment on ACHN. Further, the GI50 is > 46.5 µM (inactive) in the experiment with KM-20L2; > 100 µM (inactive) in the experiment with HOP-62; 23.4 µM (inactive) in the experiment on HOP-92; > 80 µM (inactive) in the experiment with LXFL 529; 49.1 µM (inactive) in the experiment with 786-0; > 100 µM (inactive) with LOX IMVI. The GI50 was > 100 µM (inactive) in the experiment on M14, > 100 µM (inactive) in the experiment with SK-MEL-28, 49.7 µM (inactive) with SF-268 and > 100 µM (inactive) in the experiment on K562.

Turning to `C[C@]12CCNC(=O)C=C1CC[C@@H]1C2CC[C@@]2(C)C1CC[C@@H]2OC(=O)COc1ccc(N(CCCl)CCCl)cc1` (some centres undefined), the GI50 with MDA-MB-435 is 21.8 µM (inactive); in the experiment with PC-3, > 10 µM (inactive); in the experiment on MOLT-4, 0.145 µM (active); in the experiment on HT-29, 8.59 µM (inactive); with HCT-15 it was 2.68 µM; in the experiment with UO-31 it was 4.76 µM (inactive). Further, the GI50 in the experiment with Malme-3M was 8.45 µM (inactive); in the experiment with ACHN, 0.982 µM (active); with KM-20L2, 14.4 µM (inactive); in the experiment with HOP-62, 2.84 µM (inactive); in the experiment on HOP-92 it was 7.73 µM (inactive); in the experiment with MDA-MB-231 it was 17.5 µM (inactive). Moreover, the GI50 with LXFL 529 was 7.57 µM (inactive); with 786-0, 0.964 µM (active); in the experiment on T47D, 1.88 µM (inactive); in the experiment with LOX IMVI, 3.21 µM (inactive); with M14 it was 6.35 µM (inactive); with SK-MEL-28, 17 µM (inactive). The GI50 is 2.74 µM (inactive) with SF-268 and 2.91 µM (inactive) with K562.

Turning to `CC[C@@]1(O)C(=O)OCc2c1c(Cl)c1n(c2=O)Cc2cc3ccccc3nc2-1`, the GI50 in the experiment on MDA-MB-435 is 8.95 µM (inactive); in the experiment with PC-3, 4.93 µM (inactive); with MOLT-4, 0.327 µM (active); in the experiment with HT-29, 2.18 µM (inactive); in the experiment with HCT-15, 7.98 µM; with UO-31, 1.26 µM (inactive). The GI50 with Malme-3M was 4.53 µM (inactive); in the experiment with ACHN, 1.16 µM (inactive); in the experiment with KM-20L2, 4.47 µM (inactive); in the experiment with HOP-62, 0.733 µM (active); with HOP-92, 7.62 µM (inactive); in the experiment with MDA-MB-231, 61 µM (inactive). The GI50 was 8.15 µM (inactive) with LXFL 529; 1.22 µM (inactive) with 786-0; 1.31 µM (inactive) with T47D; 1.16 µM (inactive) in the experiment on LOX IMVI; 2 µM (inactive) in the experiment with M14; 10.4 µM (inactive) in the experiment with SK-MEL-28. The GI50 in the experiment with SF-268 was 1.31 µM (inactive); in the experiment with K562, 2.1 µM (inactive).

Consider `Nc1nc2c(ncn2CCCC(c2ccccc2)P(=O)(O)O)c(=O)[nH]1` (centres undefined), for which the GI50 was > 100 µM (inactive) with MOLT-4; > 100 µM (inactive) in the experiment on HT-29; greater than 100 µM in the experiment with HCT-15; > 100 µM (inactive) in the experiment on UO-31; > 100 µM (inactive) in the experiment on Malme-3M; > 100 µM (inactive) in the experiment on ACHN. For the same compound, the GI50 was > 100 µM (inactive) with KM-20L2; > 100 µM (inactive) in the experiment on HOP-62; 91.8 µM (inactive) in the experiment on HOP-92; > 100 µM (inactive) in the experiment on LXFL 529; > 100 µM (inactive) in the experiment with 786-0; > 100 µM (inactive) in the experiment with LOX IMVI. Also, the GI50 in the experiment on M14, in the experiment with SK-MEL-28, with SF-268 and in the experiment with K562 was > 100 µM (inactive) each time.

Consider `O=c1[nH]cc(F)c(=O)n1C1OC(CO)C(O)C1O` (centres undefined), for which the GI50 with MOLT-4 was > 100 µM (inactive); with HT-29, > 100 µM (inactive); in the experiment on HCT-15, greater than 100 µM; in the experiment with UO-31, > 100 µM (inactive); with Malme-3M, > 100 µM (inactive); with ACHN it was > 100 µM (inactive). The GI50 in the experiment on KM-20L2, in the experiment with HOP-62, with HOP-92, in the experiment on LXFL 529, with 786-0 and with LOX IMVI was > 100 µM (inactive) in each case. The GI50 with M14, in the experiment with SK-MEL-28, in the experiment with SF-268 and with K562 was > 100 µM (inactive) each time.

With `O=c1c(-c2ccccc2)c2oc(c1-c1ccccc1)CSCc1cccc(c1)CSC2`, the GI50 is > 100 µM (inactive) with MOLT-4; 51.9 µM (inactive) with HT-29; greater than 100 µM in the experiment with HCT-15; 32.1 µM (inactive) with UO-31; 45.5 µM (inactive) with Malme-3M; 18.5 µM (inactive) with ACHN. The GI50 in the experiment on KM-20L2 is 67.9 µM (inactive); in the experiment with HOP-62, 21.9 µM (inactive); in the experiment on HOP-92, 34.3 µM (inactive); in the experiment with LXFL 529 it was 39 µM (inactive); in the experiment on 786-0, 27.5 µM (inactive); with LOX IMVI, 32.9 µM (inactive). The GI50 in the experiment on M14 is > 100 µM (inactive); in the experiment on SK-MEL-28, 24 µM (inactive); in the experiment with SF-268, 30.5 µM (inactive); in the experiment with K562, 62.5 µM (inactive).

Regarding `O=[N+]([O-])c1ccc(C2CC(c3ccccc3Cl)=Nc3ccccc3[S+]2[O-])cc1` (centres undefined), the GI50 in the experiment on PC-3 is 4.67 µM (inactive); in the experiment with MOLT-4 it was 1.9 µM (inactive); with HT-29, 2.5 µM (inactive); in the experiment with HCT-15, 2.21 µM; with UO-31, 2.06 µM (inactive); in the experiment with Malme-3M it was 9.91 µM (inactive). Moreover, the GI50 is 2.01 µM (inactive) in the experiment with ACHN; 2.59 µM (inactive) in the experiment with KM-20L2; 7.19 µM (inactive) in the experiment with HOP-62; 15.3 µM (inactive) in the experiment with HOP-92; 2.29 µM (inactive) in the experiment on MDA-MB-231; 1.79 µM (inactive) in the experiment on LXFL 529. For the same compound, the GI50 was 1.8 µM (inactive) in the experiment on 786-0; 12.8 µM (inactive) in the experiment on T47D; 2.07 µM (inactive) in the experiment on LOX IMVI; 5.71 µM (inactive) with M14; 5.18 µM (inactive) in the experiment on SK-MEL-28; 8.83 µM (inactive) with SF-268. Moreover, the GI50 with K562 is 1.37 µM (inactive).
